Consider one molecule from US8044029B2, “Sulfatides for treatment of autoimmune disorders” (Torrey Pines Institute for Molecular Studies, priority 2005, dated 2011).

This assay deals with chronic-relapsing EAE in SJL/J mice. The experiment in a line: Chronic-relapsing EAE, PLP139-151-immunized SJL/J mice. The following applies: 20 μg intraperitoneally at the onset of EAE, FIG. 3. The assay is classed as in vivo, mouse. The method, then: Wild type, SJL/J female mice, 6-8 week of age were immunized once subcutaneously with 75 μg of proteolipid protein peptide PLP139-151 emulsified in incomplete Freund's adjuvant (Difco, Detroit, Mich., USA) supplemented with attenuated M. tuberculosis (DIFCO) to 2 mg/ml. Mice were observed daily for signs of EAE for 50 days. The average disease score for each group was calculated by averaging the maximum severity of all of the affected animals in the group. Disease severity was scored on a 5-point scale, as described earlier: 1, flaccid tail; 2, hind limb weakness; 3, hind limb paralysis; 4, whole body paralysis; 5, moribund or death.
In the treatment protocol, 20 μg of bovine brain sulfatide in 200 μl of PBS or vehicle was given intraperitoneally at the onset of EAE and 2 weeks later. […]
Wild type, SJL/J female mice, 6-8 wk of age were immunized once subcutaneously with 75 μg of PLP139-151 peptide emulsified in IFA (DIFCO) supplemented with attenuated M. tuberculosis (DIFCO) to 2 mg/ml. […] The average disease score for each group was calculated by averaging the maximum severity of all of the affected animals in the group. Disease severity was scored on a 5-point scale, as described earlier: 1, flaccid tail; 2, hind limb weakness; 3, hind limb paralysis; 4, whole body paralysis; 5, moribund or death. […]

Consider `CCCCCCCC/C=C\CCCCCCCCCCCCCC(=O)N[C@@H](CO[C@@H]1O[C@H](CO)[C@H](O)[C@H](OS(=O)(=O)O)[C@H]1O)[C@H](O)/C=C/CCCCCCCCCCCCC` [cis-tetracosenoyl sulfatide, (2S, 3R, 4E)-N-nervonic-1-[-D-(3-sulfate)-galactopyranosyl]-2-amino-octadecene-3-ol], for which the “effect on ongoing chronic-relapsing EAE (disease score, 5-point scale)” value was “reverses ongoing chronic-relapsing EAE”.
